# According to ChEMBL document CHEMBL1806411, “Opioid δ₁ receptor antagonist 7-benzylidenenaltrexone as an effective resistance reverser for chloroquine-resistant Plasmodium chabaudi” (Bioorg Med Chem Lett, 2011):
# The source made the active and inactive calls. No cut-off for these calls is given here.
# Tests used:
# Assay type in all cases: functional, organism-based
# Plasmodium chabaudi [1] = assay: Antimalarial activity against chloroquine-resistant Plasmodium chabaudi infected in mouse assessed as parasitemia at 10 mg/kg, po administered for 3 consecutive days; set-up: dose 10 mg/kg
# Plasmodium chabaudi [2] = assay: Reversal of chloroquine-resistance in Plasmodium chabaudi infected in mouse at 10 mg/kg, po coadministered with chloroquine 3 mg/kg, iv administered for 3 consecutive days measured on day 4
# Plasmodium chabaudi [3] = assay: Reversal of chloroquine-resistance in Plasmodium chabaudi infected in mouse at 20 mg/kg, po coadministered with chloroquine 3 mg/kg, iv administered for 3 consecutive days measured on day 4
SMILES,Activity (Plasmodium chabaudi [1]),Activity (Plasmodium chabaudi [2]),Activity (Plasmodium chabaudi [3])
O=C1CC[C@@]2(O)[C@H]3Cc4ccc(O)c5c4[C@@]2(CCN3CC2CC2)[C@H]1O5,inactive,Active,
O=C1/C(=C/c2ccccc2)C[C@@]2(O)[C@H]3Cc4ccc(O)c5c4[C@@]2(CCN3CC2CC2)[C@H]1O5,inactive,Active,
CCN(CC)CCCC(C)Nc1ccnc2cc(Cl)ccc12 (stereo not drawn),inactive,inactive,
Oc1ccc2c3c1O[C@H]1c4[nH]c5c(c4C[C@@]4(O)[C@@H](C2)N(CC2CC2)CC[C@]314)C[C@@]1(O)[C@H]2Cc3ccc(O)c4c3[C@@]1(CCN2CC1CC1)[C@H]5O4,inactive,Active,
COc1ccc(CCN(C)CCCC(C#N)(c2ccc(OC)c(OC)c2)C(C)C)cc1OC (stereo not drawn),,,Active
Oc1ccc2c3c1O[C@H]1c4oc5ccccc5c4C[C@@]4(O)[C@@H](C2)N(CC2CC2)CC[C@]314,Active,Active,
Oc1ccc2c3c1O[C@H]1c4[nH]c5ccccc5c4C[C@@]4(O)[C@@H](C2)N(CC2CC2)CC[C@]314,inactive,Active,
